Where two headings read alike, the source gives them in different places.
Columns and labels:
β1-adrenergic receptor = β1-adrenergic receptor (Homo sapiens (Human), UniProt P08588); assay: cAMP Gs dynamic HTRF assay, β1 expressing CHO cells; assay type: cell-based
Experimental: (§1) cAMP homogeneous time-resolved fluorescence (HTRF). Compound efficacy was determined using the cAMP Gs dynamic HTRF assay (Cisbio, catalog #62AM4PEC) largely following the manufacturer's instructions, also detailed below.
(§2) Compound preparation. […] Standard serial dilution curves were 10-point, 5-fold dilutions starting from a highest concentration of 10 μM. […] Assay plates were centrifuged at 500×g for 10 seconds. Compounds and IBMX were prepared at 2× final dose to compensate for addition of cells.
(§3) Cell preparation. 1× stimulation buffer, washing PBS (Dulbecco's phosphate-buffered saline, −Mg −Ca; Caisson Labs, catalog #PBL01), assay PBS (Dulbecco's phosphate-buffered saline, +Mg, +Ca; Caisson Labs, catalog #PBL02) and Versene (0.02% EDTA disodium salt solution in PBS without calcium or magnesium; Caisson Labs, catalog #EDL01) were pre-warmed to 37° C. Cells expressing beta-adrenergic receptor were washed in washing PBS to remove growth medium and then released from the surface by incubating with Versene for 5-10 minutes at 37° C. Cells were harvested using assay PBS, counted manually by hemocytometer or by an automated cell counter, pelleted by centrifugation (200×g, 5 minutes) and resuspended in 37° C. 1× stimulation buffer to a final density of 1.5×10^6 cells/mL. 5 μL of the suspended cell solution (7500 cell total) were added to all wells of the 384 well assay plate, the assay plate was covered with an Axygen® plate seal (Corning PCR-SP) and incubated in a humidified 37° C. environment supplemented with 5% CO2 for 30 minutes.
(§4) HTRF reagent addition, reading and data analysis. After 30 minutes of cell stimulation with test compound, the assay plates were centrifuged at 500×g for 10 seconds, and incubation was stopped with the addition of 5 μL cAMP-D2 acceptor, diluted 1:21 in detection and lysis buffer 2 (Cisbio 62CL2FDF) was added to all cells. Subsequently, 5 μL Anti-cAMP-Eu Donor, diluted 1:21 in detection and lysis buffer 2, was added to cells. Plates were sealed and reactions gently ‘vortexed’ at 900 rpm on a Heidolph Titramax 1000 for at least 30 minutes at room temperature. Plates were centrifuged again at 500×g for 10 seconds, and HTRF was measured using a Tecan Spark plate reader at 50 flashes per well. […] Potency estimates (EC50) were derived from the four-parameter nonlinear regression of the concentration-effect curve and an estimate of relative efficacy was determined by comparing the magnitude of the test compound HTRF signal window (min−max dose) with the signal window of the full agonist control, isoproterenol.

β2 adrenergic receptor = β2 adrenergic receptor (Homo sapiens (Human), UniProt P07550); assay: cAMP Gs dynamic HTRF assay, β2 expressing CHO cells; assay type: cell-based
Experimental: as §1, §2, §3, §4

[1] = B1-AR, CHO-K cells, read-out: Average EC50 [Receptor subtype: B1-AR, Cell type: CHO-K]
[2] = B2-AR, CHO-K cells, read-out: Average EC50 [Receptor subtype: B2-AR, Cell type: CHO-K]
[3] = B1-AR, CHO-K1 (HitHunter), read-out: Average pEC50 [Receptor subtype: B1-AR, Cell type: CHO-K1 (HitHunter)] (converted)
[4] = B2-AR, CHO-K1 (HitHunter), read-out: Average pEC50 [Receptor subtype: B2-AR, Cell type: CHO-K1 (HitHunter)] (converted)

Chain of β1-adrenergic receptor (P08588 whole entry, species assumed): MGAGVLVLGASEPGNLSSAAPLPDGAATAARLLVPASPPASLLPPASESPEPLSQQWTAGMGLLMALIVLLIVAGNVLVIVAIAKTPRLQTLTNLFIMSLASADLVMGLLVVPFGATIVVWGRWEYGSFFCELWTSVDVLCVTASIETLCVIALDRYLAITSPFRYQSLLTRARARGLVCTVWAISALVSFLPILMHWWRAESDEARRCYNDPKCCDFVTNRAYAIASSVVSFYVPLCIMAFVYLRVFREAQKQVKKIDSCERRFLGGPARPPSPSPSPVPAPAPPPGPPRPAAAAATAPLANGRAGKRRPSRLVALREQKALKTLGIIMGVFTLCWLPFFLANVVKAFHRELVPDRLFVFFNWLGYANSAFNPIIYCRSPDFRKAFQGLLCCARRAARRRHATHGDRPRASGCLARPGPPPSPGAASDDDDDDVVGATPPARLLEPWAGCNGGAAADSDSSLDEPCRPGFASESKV
Chain of β2 adrenergic receptor (P07550 whole entry, species assumed): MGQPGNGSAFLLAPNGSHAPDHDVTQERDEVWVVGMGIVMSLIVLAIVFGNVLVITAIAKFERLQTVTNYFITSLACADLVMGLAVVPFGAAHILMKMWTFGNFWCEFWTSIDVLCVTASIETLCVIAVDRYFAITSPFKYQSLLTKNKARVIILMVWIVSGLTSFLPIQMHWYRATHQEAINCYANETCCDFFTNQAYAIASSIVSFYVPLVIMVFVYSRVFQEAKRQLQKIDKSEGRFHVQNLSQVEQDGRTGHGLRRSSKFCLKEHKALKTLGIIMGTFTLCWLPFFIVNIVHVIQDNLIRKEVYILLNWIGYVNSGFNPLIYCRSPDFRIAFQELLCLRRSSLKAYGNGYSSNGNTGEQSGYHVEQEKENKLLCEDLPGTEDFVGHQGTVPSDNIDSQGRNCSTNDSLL

Row | Compound | EC50 (β2 adrenergic receptor; [2]) [µM] | EC50 (β2 adrenergic receptor; [4]) [µM] | further results
1 | COc1ccc(C[C@@H](C)NC[C@H](O)c2cc(F)cnc2C)cc1 [Compound 03-260] |  |  | EC50 (β1-adrenergic receptor; Average pEC50 [Receptor subtype: B1-AR, Cell type: CHO-K1 (HitHunter)], B1-AR, CHO-K1 (HitHunter)): > 1 µM; EC50 (β2 adrenergic receptor; Average pEC50 [Receptor subtype: B2-AR, Cell type: CHO-K1 (HitHunter)], B2-AR, CHO-K1 (HitHunter)): < 0.01 µM
2 | CC(C)(C)NC[C@H](O)c1ncccc1C(F)(F)F [Compound 03-1, (S)-2-(tert-butylamino)-1-(3-(trifluoromethyl)pyridin-2-yl)ethan-1-ol] |  |  | EC50 (β1-adrenergic receptor; cAMP HTRF, read-out: β1 EC50): > 1 µM; EC50 (β2 adrenergic receptor; cAMP HTRF, read-out: β2 EC50): > 1 µM
3 | CC(C)(C)NC[C@H](O)c1cccc(-c2ccc(Cl)cc2)n1 [Compound 03-119] |  |  | Average pEC50 [Receptor subtype: B1-AR; Cell type: CHO-K1 (HitHunter)] (β1-adrenergic receptor; B1-AR, CHO-K1 (HitHunter)): C (C = <7-6); EC50 (β1-adrenergic receptor; [1]): 0.1 to 1 µM
4 | CC(C)(C)NC[C@@H](O)c1ccc2ccccc2n1 [Compound 03-166] | 0.1 to 1 |  | EC50 (β1-adrenergic receptor; [1]): 0.1 to 1 µM
5 | CC(C)(C)NC[C@@H](O)c1nccc2ccccc12 [Compound 03-187] | > 1 |  | 
6 | CC(C)(C)NC[C@H](O)c1cccc(C2(C#N)CC2)n1 [Compound 03-206] |  | < 0.01 | EC50 (β1-adrenergic receptor; [3]): < 0.01 µM
7 | Cc1nc(NC2CC2)ccc1[C@@H](O)CNC(C)(C)C [Compound 03-274] |  | 0.01 to 0.1 | EC50 (β1-adrenergic receptor; [3]): > 1 µM
8 | CC(C)(C)NC[C@H](O)c1ccncc1C(F)(F)F [Compound 03-242] |  | > 1 | 
9 | COc1ccc(C[C@@H](C)NC[C@H](O)c2ccc(C3CC3)nc2C)cc1 [Compound 03-269] |  |  | Average pEC50 [Receptor subtype: B1-AR; Cell type: CHO-K1 (HitHunter)] (β1-adrenergic receptor; B1-AR, CHO-K1 (HitHunter)): B (B = 8-7); Average pEC50 [Receptor subtype: B2-AR; Cell type: CHO-K1 (HitHunter)] (β2 adrenergic receptor; B2-AR, CHO-K1 (HitHunter)): A (A > 8)
10 | CC(C)(C)NC[C@H](O)c1cccc(-n2ccnc2)n1 [Compound 03-213] |  | 0.01 to 0.1 | EC50 (β1-adrenergic receptor; [3]): > 1 µM
11 | CC(C)(C)NC[C@@H](O)c1cccc(-c2cccnc2)n1 [Compound 03-152] | 0.1 to 1 | 0.01 to 0.1 | Average pEC50 [Receptor subtype: B1-AR; Cell type: CHO-K1 (HitHunter)] (β1-adrenergic receptor; B1-AR, CHO-K1 (HitHunter)): D (D < 6); EC50 (β1-adrenergic receptor; [1]): > 1 µM
12 | CC(C)(C)NC[C@H](O)c1cccc(NC2(C)CC2)n1 [Compound 03-264] |  | < 0.01 | EC50 (β1-adrenergic receptor; [3]): 0.01 to 0.1 µM
13 | CC(C)(C)NC[C@@H](O)c1cccc(OC(C)(C)C)n1 [Compound 03-273] |  | 0.1 to 1 | EC50 (β1-adrenergic receptor; [3]): > 1 µM
14 | CC(C)(C)NC[C@H](O)c1cccc(C2=N[C@H](C(=O)O)CS2)n1 [Compound 03-246] |  | > 1 | EC50 (β1-adrenergic receptor; [3]): > 1 µM
15 | Cc1cc([C@@H](O)CNC(C)(C)C)ccn1 [Compound 03-108] |  | > 1 | 
16 | [2H]C([2H])([2H])C(NCC(O)c1cccnc1C)(C([2H])([2H])[2H])C([2H])([2H])[2H] (stereo not shown) [Compound 03-278] |  | < 0.01 | EC50 (β1-adrenergic receptor; [3]): 0.1 to 1 µM
17 | Cc1cccc([C@H](O)CNC(C)(C)C)n1 [Compound 03-47] | > 1 | > 1 | EC50 (β1-adrenergic receptor; [3]): > 1 µM; EC50 (β1-adrenergic receptor; [1]): > 1 µM
18 | CC(C)(C)NC[C@H](O)c1ccc(C#N)c(C(F)(F)F)n1 [Compound 03-30] | 0.01 to 0.1 | 0.01 to 0.1 | EC50 (β1-adrenergic receptor; [3]): 0.1 to 1 µM; EC50 (β1-adrenergic receptor; [1]): 0.1 to 1 µM
19 | CC(C)(C)NCC(O)c1cccnc1C(=O)NC(C)(C)C (stereo not shown) [Compound 03-112] | > 1 | > 1 | 
20 | CC(C)(C)NC[C@H](O)c1cccc(C(=O)O)n1 [Compound 03-240] |  | > 1 | 
21 | CC(C)(C)NC[C@H](O)c1nc(C(F)(F)F)cc2ccccc12 [Compound 03-171] | > 1 |  | 
22 | CC(C)(C)NC[C@H](O)c1ccnc(C(F)(F)F)c1 [Compound 03-227] |  | > 1 | 
23 | CC(C)(C)NC[C@H](O)c1cccnc1C1=CCCC1 [Compound 03-62] |  | > 1 | 
24 | OC(CNC1(C(F)(F)F)CC1)c1cccc(C(F)(F)F)n1 (stereo not shown) [Compound 03-218] |  | > 1 | 
25 | CC(C)(C)NC[C@H](O)c1cccnc1-c1cccc(F)c1 [Compound 03-61] | > 1 | > 1 | 

Row | Compound | EC50 (β2 adrenergic receptor; [2]) [µM] | EC50 (β2 adrenergic receptor; [4]) [µM] | further results
26 | CC(C)(C)NCC(O)c1cccnc1C(=O)O (stereo not shown) [Compound 03-113] | > 1 | > 1 | 
27 | CC(C)(C)NC[C@@H](O)c1ccc(C#N)cn1 [Compound 03-222] |  | > 1 | 
28 | CC(C)(C)NC[C@@H](O)c1cccc(N2CC3CCCC3C2)n1 (stereo partly shown) [Compound 03-136] | 0.01 to 0.1 | 0.01 to 0.1 | 
29 | CCOc1cccc([C@H](O)CNC(C)(C)C)n1 [Compound 03-178] | 0.1 to 1 | 0.1 to 1 | 
30 | Cn1cc(-c2cccc([C@H](O)CNC(C)(C)C)n2)cn1 [Compound 03-224] |  | 0.1 to 1 | 
31 | CC(C)(C)NC[C@H](O)c1cccnc1C(F)(F)F [Compound 03-118] | 0.1 to 1 | 0.1 to 1 | 
32 | CN(C)c1ncccc1[C@@H](O)CNC(C)(C)C [Compound 03-56] | > 1 | > 1 | 
33 | Cc1cnc(C2CCCC2)c([C@@H](O)CNC(C)(C)C)c1 [Compound 03-77] |  | > 1 | 
34 | CC(C)(C)NC[C@H](O)c1cccnc1CC(F)(F)F [Compound 03-84] |  | > 1 | 
35 | CCNc1ncccc1[C@@H](O)CNC(C)(C)C [Compound 03-73] |  | > 1 | 
36 | CC(C)(C)NC[C@@H](O)c1cccc(N2CCCCC2)n1 [Compound 03-138] |  |  | EC50 (β1-adrenergic receptor; [3]): > 1 µM; EC50 (β1-adrenergic receptor; [1]): > 1 µM
37 | Cc1ncccc1[C@H](O)CNC(C)(C)C [Compound 03-116] | > 1 | > 1 | 
38 | Cc1ccccc1-c1cccc([C@H](O)CNC(C)(C)C)n1 [Compound 03-150] |  |  | EC50 (β1-adrenergic receptor; [3]): > 1 µM; EC50 (β1-adrenergic receptor; [1]): > 1 µM
39 | CC(C)(C)NC[C@H](O)c1cccnc1C(C)(C)C [Compound 03-79] |  | > 1 | 
40 | CC(C)(C)NC[C@@H](O)c1cccc(-c2ccc(F)cc2)n1 [Compound 03-146] |  |  | EC50 (β1-adrenergic receptor; [3]): 0.1 to 1 µM; EC50 (β1-adrenergic receptor; [1]): 0.1 to 1 µM
41 | CC(C)(C)NC[C@@H](O)c1cccc(-c2cccc(F)c2)n1 [Compound 03-132] |  |  | Average pEC50 [Receptor subtype: B1-AR; Cell type: CHO-K1 (HitHunter)] (β1-adrenergic receptor; B1-AR, CHO-K1 (HitHunter)): D (D < 6); EC50 (β1-adrenergic receptor; [1]): > 1 µM
42 | CC(C)Oc1cccc([C@H](O)CNC(C)(C)C)n1 [Compound 03-180] | 0.1 to 1 | 0.1 to 1 | 
43 | CC(C)(C)NC[C@H](O)c1cc(C(F)(F)F)cnc1C1CCCC1 [Compound 03-78] |  |  | EC50 (β1-adrenergic receptor; [3]): < 0.01 µM
44 | CC(C)(C)NC[C@@H](O)c1ccc(C#N)c(C(F)(F)F)n1 [Compound 03-31] | > 1 | > 1 | 
45 | CN1CCN(c2cccc([C@@H](O)CNC(C)(C)C)n2)CC1 [Compound 03-139] |  |  | Average pEC50 [Receptor subtype: B1-AR; Cell type: CHO-K1 (HitHunter)] (β1-adrenergic receptor; B1-AR, CHO-K1 (HitHunter)): D (D < 6); EC50 (β1-adrenergic receptor; [1]): > 1 µM
46 | CC(C)(C)NC[C@@H](O)c1cccc(NC2CCCC2)n1 [Compound 03-236] |  | 0.1 to 1 | 
47 | CC(C)(C)NC[C@H](O)c1cccc(-c2nnn[nH]2)n1 [Compound 03-18] |  |  | Average pEC50 [Receptor subtype: B1-AR; Cell type: CHO-K1 (HitHunter)] (β1-adrenergic receptor; B1-AR, CHO-K1 (HitHunter)): D (D < 6); EC50 (β1-adrenergic receptor; [1]): > 1 µM
48 | CC(C)(C)N(O)C[C@H](O)c1cccc(C(N)=O)n1 [Compound 03-245] |  | > 1 | 
49 | CC(=O)Nc1cccc([C@@H](O)CNC(C)(C)C)n1 [Compound 03-194] |  | > 1 | 
50 | CCN(CC)c1cccc([C@@H](O)CNC(C)(C)C)n1 [Compound 03-159] |  |  | EC50 (β1-adrenergic receptor; [3]): 0.01 to 0.1 µM; EC50 (β1-adrenergic receptor; [1]): 0.01 to 0.1 µM

Source: patent publication US10947196B2, “Beta adrenergic agonist and methods of using the same” (CURASEN THERAPEUTICS, INC., priority 2019, dated 2021)
